Measured values: PubChem BioAssay (NCI)
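Results reflect a 48-hour exposure of cells in 96-well plates to compound at five concentrations. GI50 marks 50% less growth. TGI is the concentration that stops growth completely.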

How the values were obtained:
Test in all cases: NCI-60 cell line screen, 48 h
NCI/ADR-RES ovarian = test system: NCI/ADR-RES ovarian
HL-60(TB) leukemia = test system: HL-60(TB) leukemia
SR leukemia = test system: SR leukemia
MDA-MB-435 = test system: MDA-MB-435
SW-620 colon = test system: SW-620 colon
HCT-116 colon = test system: HCT-116 colon
OVCAR-8 ovarian = test system: OVCAR-8 ovarian
KM12 colon = test system: KM12 colon
A498 renal = test system: A498 renal
UACC-257 melanoma = test system: UACC-257 melanoma

Row | SMILES | GI50 (NCI/ADR-RES ovarian) | TGI (NCI/ADR-RES ovarian) | GI50 (HL-60(TB) leukemia) | TGI (HL-60(TB) leukemia) | GI50 (SR leukemia) | TGI (SR leukemia) | GI50 (MDA-MB-435) | TGI (MDA-MB-435) | GI50 (SW-620 colon) | TGI (SW-620 colon) | GI50 (HCT-116 colon) | TGI (HCT-116 colon) | GI50 (OVCAR-8 ovarian) | TGI (OVCAR-8 ovarian) | GI50 (KM12 colon) | TGI (KM12 colon) | GI50 (A498 renal) | TGI (A498 renal) | GI50 (UACC-257 melanoma) | TGI (UACC-257 melanoma)
1 | COc1cc(N2CCC(N3CCN(C)CC3)CC2)ccc1Nc1ncnc(Nc2ccccc2S(=O)(=O)C(C)C)n1 | 7.26 µM | 42.6 µM | 11.7 µM | 32.2 µM | 0.104 µM | 18.7 µM | 2.6 µM | 10.2 µM | 3.68 µM | 39.5 µM | 4.94 µM | 22.7 µM | 3.52 µM | 21.3 µM | 6.76 µM | 27.6 µM | 2.3 µM | 17.2 µM | 8.42 µM | 27.3 µM
2 | C/C(=N\Nc1cc(C)c2ccccc2n1)c1ccccn1 | 0.0717 µM | 1.42 µM | < 0.0365 µM | 0.155 µM | < 0.0293 µM | 2.39 µM | 0.21 µM | 1.75 µM | – | 1.98 µM | < 0.0401 µM | 1.29 µM | 0.0535 µM | 1.35 µM | 0.0789 µM | 1.76 µM | 0.284 µM | 3.04 µM | 0.0874 µM | 0.452 µM
3 | CCN(Cc1ccccc1)c1ccc(CO)c(Cl)c1 | 14.4 µM | 56.8 µM | 11.1 µM | 46.7 µM | > 52.1 µM | > 100 µM | 21.4 µM | 77.8 µM | 1.27 µM | > 100 µM | 0.11 µM | 10.2 µM | 12.1 µM | > 100 µM | 20.5 µM | 63.3 µM | 0.042 µM | 0.169 µM | 0.131 µM | 0.316 µM
4 | CCC(=O)Nc1ccccc1C#C/C=C\C#Cc1ccccc1SC | 5.15 µM | 65.2 µM | 1.46 µM | > 100 µM | 1.68 µM | > 100 µM | 1.92 µM | 6.17 µM | 4.62 µM | > 100 µM | 5.61 µM | > 100 µM | 12.3 µM | > 100 µM | 5.27 µM | > 100 µM | 15.1 µM | > 100 µM | 12.1 µM | 59.2 µM
5 | C=C1C(=O)O[C@H]2[C@H]1CC/C(COC(=O)C(=O)c1cn(C)c3ccc(Cl)cc13)=C\CC[C@@]1(C)O[C@@H]21 | 1.45 µM | 4.7 µM | 1.25 µM | 4.09 µM | 0.3 µM | 50 µM | 1.27 µM | 3.13 µM | 0.857 µM | 10.9 µM | 1.24 µM | 2.69 µM | 2.1 µM | 10.1 µM | 2.48 µM | 7.46 µM | 2.17 µM | 3.86 µM | 1.65 µM | 3.55 µM
